Assay results: patent EP3895685A1, “NATURAL COMPOSITION FOR HAIR GROWTH STIMULATION AND HAIR LOSS PREVENTION AND TREATMENT WITHOUT PRESERVATIVES” (Fraunhofer-Gesellschaft zur Förderung der angewandten …, priority 2020, dated 2021)

Columns and labels:
[1] = test system: HFDPC; assay: Assessment of cell morphology by phase contrast microscopy; type: cell-based, human; conditions: for cell adherence and proliferation (summary): confluence and cell shape after 3 weeks, diosgenin concentration-dependent
Experimental: (§1) First, Human Follicle Dermal Papilla Cells (HFDPC) cells were thawed and seeded into collagen-coated cell culture flasks (T25). Then the medium was changed every 48 h. After 4 days the cells were trypsinized and seeded in T75 cell culture flask. In preparation for the final experiment, the cells were trypsinized and then counted with a cell counter. The cell concentration was then adjusted in a defined amount of medium followed by seeding of the cells in 96-well plates for the subsequent cell impedance measurements (5000 cells per well) or in 24-well plates (20000 cells per well). Subsequently, the cells were cultivated for 7 days in pure culture medium with regular medium changes after 2-3 days. After 7 days, the medium with the additives listed in Table 1 was added (designated as day 0), followed by a 3-week cultivation of the cells. The medium (and addition of fresh active substances) was changed every 2-3 days. […] The following examinations were carried out after 7, 14 and 21 days. Cells in pure culture medium (C+M) were used as controls (untreated). All cell culture substrates were coated with collagen prior to cell seeding. The tests with HFDPC were run without the use of preservatives.
Cell morphology was assessed through microscopic examination of the cells with an inverted microscope (phase contrast microscopy) at 10x and 20x primary magnification. The morphology of the cells provides information on the adherence behaviour of the cells,possible cell activation and cell stress. This examination was carried out on a 24-well scale.

[2] = test system: VEGF; assay: VEGF-ELISA in cell culture supernatant; type: cell-based, human
From the text: If the cell membrane is damaged, the lactadehydrogenase (LDH) present inside the cell is released into the cell culture supernatant. The resulting NADH/H+ reduces the tetrazolium salt present in the reaction mixture to formazan. This becomes visible by a colour change, which can be detected at an absorption of 450 nm (y-axis: OD 450 nm) in the microplate reader. The higher the intensity of the colour change, the greater the degree of membrane damage. A low OD 450 nm value is desired. Four diagrams are presented: The LDH level after one week (LDH 1st Week of Trial), two weeks (LDH 2nd Week of Trial) and three weeks (LDH 3rd Week of Trial) after the HFDPC cells were exposed to the control conditions or to the actives substances. The control conditions are HFDPC with medium (blue, C+M). Active substances are arachidonate with low concentration (purple, Ara 1.c), arachidonate with high concentration (orange, Ara 2.c), diosgenin with low concentration (black, Dios 1.c), diosgenin with high concentration (brown, […]), ricinoleic acid with low concentration (dark blue, Rici 1.c), ricinoleic acid with high concentration (dark violet, Rici 2.c), inventive example with low concentration (red, IE 1.c) inventive example with high concentration (green, IE 2.c). The fourth diagram presents a background control, in which the LDH level was measured by OD 450 nm values (y-axis) from the cell culture supernatant for the medium (blue, M) as a control test and for the medium with the active substance in high concentrations (green, M+Ara 2.c; purple, M+Dios 2.c; orange, M+Rici 2.c; black, M+IE 2.c) after one, two and three weeks (x-axis). • FIG 2: Phase contrast images of untreated HFDPC (HFDPC in medium) 1 week after cell cultivation a) 10x magnification, b) 20x magnification • FIG 3: Phase contrast images of treated HFDPC in 20x magnification, one week after addition of the active ingredient a) Ara 1.c, b) Ara 2.c, c) Rici 1.c, d) Rici 2.c, e) Dios 1.c, f) Dios 2.c, g) IE 1.c, h) IE 2.c • FIG 4: Phase contrast images of untreated and treated HFDPC in 20x magnification, two weeks after addition of the active ingredient a) Medium b) Ara 1.c, c) Ara 2.c, d) Rici 1.c, e) Rici 3.c, f) Dios 1.c, g) Dios 2.c, h) IE 1.c, i) IE 2.c • FIG 5: Phase contrast images of untreated and treated HFDPC in 20x magnification, three weeks after addition of the active ingredient a) Medium b) Ara 1.c, c) Ara 2.c, d) Rici 1.c, e) Rici 3.c, f) Dios 1.c, g) Dios 2.c, h) IE 1.c, i) IE 2.c • FIG 6: Alkaline Phosphatase Alkaline phosphatase (AP) is an enzyme that catalyses the hydrolysis of a large number of phosphate esters. The enzyme is formed by the HFDPCs during the hair cycle. Thus, the detection of AP is the proof of hair growth. […]

[3] = test system: HFDPC; assay: Cell count after trypsination; type: cell-based, human; conditions: for influence on the cell count (summary): over 3 weeks
Experimental: as §1
This investigation was performed on a 24-well scale.
To perform this investigation 5000 cells per well were seeded in the 96-wells with the addition of a maximum of 200 µl medium. The cells were grown for 7 days in pure cell culture medium. The medium was changed every 2-3 days, whereby 100 µl of old medium was removed and replaced by 100 µl of new medium. After 7 days the "pure" cell culture medium was completely removed and medium with the respective additives was added. The cells were then cultivated for 3 weeks with regular replacement of the medium with the respective additives. Cell counting after trypsinizing: The exact cell count of HFDPC was determined after trypsination of the cells in the respective well and uptake of the resulting cell pellets in medium. All pellets of one sample were combined in a cell culture vessel and then counted with a cell counter.

[4] = test system: HFDPC; assay: Immunofluorescent staining of vimentin; type: cell-based, human; conditions: 2. Concentration (2c)
[5] = test system: HFDPC; assay: Cell impedance test (xCELLigence, cell index) on proliferation and toxicity; type: cell-based
[6] = 2 weeks after addition, versus untreated cells
[7] = 1. Concentration (1c), after 3 weeks
[8] = 1 week after addition, versus untreated cells
[9] = depending on concentration and time, compared to untreated cells
[10] = 250 µg/mL in medium, first 24 hours after addition

SMILES: CCCCC/C=C\C/C=C\C/C=C\C/C=C\CCCC(=O)[O-].[Na+] [Ara, Sodium Arachidonate]
- cell density ([1]; 2 weeks after addition, higher concentration): higher cell density
- cell morphology / confluence [1, 6]: almost the same morphology
- VEGF release [2, 7]: lower VEGF release
- cell count ([3]; after 3 weeks, higher concentration, compared to untreated cells): increase in HFDPC
- cell count ([3]; entire duration of the experiment, independent of time and concentration): did not negatively affect the cell count
- cell count ([3]; over 2 weeks): remained constant
- cell spreading and attachment to the cell culture substrate [4]: able to clearly spread and attach to the cell culture substrate
- cell index ([5]; 50 µg/mL in medium): increase the cell index
- toxic effect on the cells ([5]; 50 µg/mL in medium): does not have a toxic effect
- toxic effect on the cells ([5]; 100µg/mL in medium): has a toxic effect

SMILES: C[C@@H]1CC[C@@]2(OC1)O[C@H]1C[C@H]3[C@@H]4CC=C5C[C@@H](O)CC[C@]5(C)[C@H]4CC[C@]3(C)[C@H]1[C@@H]2C [Dios, Diosgenin]
- cell morphology / confluence [1, 8]: greater confluence
- cell morphology / confluence [1, 6]: very high confluence in the well and elongated, typical growth
- cell morphology / confluence ([1]; 3 weeks after addition, lower concentration): resembled untreated cells
- cell adherence and proliferation (summary) [1]: very beneficial
- VEGF release ([2]; 1. Concentration (1c), after 1 week): lower VEGF release
- VEGF release [2, 7]: lower VEGF release
- number of HDFPC ([3]; 1c, over time): remained constant after addition of Diosgenin 1c, but was increased compared to untreated cells
- cell number ([3]; 2c, over time, compared to untreated and Diosgenin 1c treated cells): significant increase in cell number
- cell count [3, 9]: positive influence on the cell number
- influence on the cell count (summary) [3]: positive influence on the cell count
- cell spreading and attachment to the cell culture substrate [4]: able to clearly spread and attach to the cell culture substrate
- toxicity in the cellular impedance test ([5]; measured maximum concentration of 500 µg/mL): not toxic

SMILES: CCCCCC[C@@H](O)C/C=C\CCCCCCCC(=O)O [Rici, 12-hydroxy-9-cis-octadecenoic acid]
- cell morphology / confluence [1, 8]: greater confluence
- cell morphology / confluence [1, 6]: very high confluence in the well and elongated, typical growth
- cell morphology / confluence ([1]; 3 weeks after addition, both concentrations): confluent, very dense monolayer and an elongated cell shape
- cell adherence and proliferation (summary) [1]: very beneficial
- VEGF release ([2]; 2. Concentration (2.c), after 3 weeks): lower VEGF release
- cell count ([3]; after 1 week, compared to untreated cells): difference was visible
- cell count [3, 9]: significant increase in cell count
- influence on the cell count (summary) [3]: positive influence on the cell count
- cell index ([5]; 100µg/mL, after 24 h and 48 h addition): remained constant
- cell index [5, 10]: positive influence on the cell index
- toxic effect on the cells [5, 10]: does not appear to have a toxic effect
- cell index ([5]; 250 µg/mL, after 48h of repeated addition): decreases
